Assay results reported in patent US20150105252A1, “SUBSTITUTED PYRAZOLES AS HERBICIDES” (E I DU PONT DE NEMOURS AND COMPANY, priority 2013, published 2015).

Columns and labels:
foxtail, giant = assay: Test A preemergence; assay type: in vivo, Setaria faberii; details: preemergence
Summary of the method: (§1)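 Visual injury ratings, 0 = no effect to 100 = complete control, taken about 10 days after treatment against untreated controls. Test chemicals, in a non-phytotoxic surfactant-containing solvent, were sprayed onto soil preemergence or onto one- to two-leaf plants (2–10 cm) postemergence, in loam–sand soil under greenhouse conditions.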

morningglory [1] = assay: Test A preemergence; assay type: in vivo, Ipomoea spp.; details: preemergence
Summary of the method: as §1

corn [2] = assay: Test A preemergence; assay type: in vivo, Zea mays; details: preemergence
Summary of the method: as §1

barnyardgrass [3] = assay: Test A postemergence; assay type: in vivo, Echinochloa crus-galli
Summary of the method: as §1

velvetleaf [4] = assay: Test A postemergence; assay type: in vivo, Abutilon theophrasti; details: Postemergence
Summary of the method: as §1

corn [5] = assay: Test A postemergence; assay type: in vivo, Zea mays
Summary of the method: as §1

galium = assay: Test C preemergence; assay type: in vivo, Galium aparine; details: preemergence
Summary of the method: (§2)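 Greenhouse pot test: preemergence application onto freshly seeded loam/sand mix, postemergence application onto seedlings (1–4 leaves, 2–18 cm) in peat-vermiculite substrate. Responses scored visually 13 to 15 days later relative to controls, where 0 means no effect and 100 means complete control; a dash indicates no result.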

barnyardgrass [6] = assay: Test C preemergence; assay type: in vivo, Echinochloa crus-galli; details: preemergence
Summary of the method: as §2

lambsquarters = assay: Test C postemergence; assay type: in vivo, Chenopodium album
Summary of the method: as §2

morningglory [7] = assay: Test C postemergence; assay type: in vivo, Ipomoea coccinea
Summary of the method: as §2

pigweed = assay: Test C postemergence; assay type: in vivo, Amaranthus retroflexus; details: postemergence
Summary of the method: as §2

barnyardgrass [8] = assay: Test C postemergence; assay type: in vivo, Echinochloa crus-galli
Summary of the method: as §2

oilseed rape = assay: Test C postemergence; assay type: in vivo, Brassica napus; details: postemergence
Summary of the method: as §2

oat, wild = assay: Test C postemergence; assay type: in vivo, Avena fatua
Summary of the method: as §2

velvetleaf [9] = assay: Test C postemergence; assay type: in vivo, Abutilon theophrasti; details: postemergence
Summary of the method: as §2

chickweed = assay: Test C postemergence; assay type: in vivo, Stellaria media
Summary of the method: as §2

[10] = 125 g ai/ha, visual injury approx. 10 days after treatment
[11] = 500 g ai/ha, visual injury after approx. 10 days, 0 to 100 scale (0 no effect, 100 complete control)
[12] = Postemergence, 500 g ai/ha, 0 to 100 scale (0 no effect, 100 complete control)
[13] = postemergence, 125 g ai/ha, about 10 days, visual rating on 0 to 100 scale (0 no effect, 100 complete control)
[14] = 31 g ai/ha, visual rating, scale 0 to 100 (0 no effect, 100 complete control), 13 to 15 days
[15] = 62 g ai/ha, scale 0 to 100 (0 no effect, 100 complete control), 13 to 15 days
[16] = 125 g ai/ha, 13 to 15 days, scale 0 to 100, 0 = no effect, 100 = complete control
[17] = 250 g ai/ha, scale 0 to 100, 0 is no effect, 100 is complete control
[18] = Postemergence, 31 g ai/ha, visually evaluated after 13 to 15 days
[19] = postemergence, 62 g ai/ha, scale 0 to 100
[20] = postemergence, 250 g ai/ha, scale 0 to 100 (0 no effect, 100 complete control)
[21] = postemergence, 125 g ai/ha, scale 0 to 100, 0 no effect, 100 complete control
[22] = 250 g ai/ha, scale 0 to 100 (0 no effect, 100 complete control)
[23] = 125 g ai/ha, scale 0 to 100, 0 no effect, 100 complete control

CCCc1cc(C(=O)NC2CC2)nn1Cc1cc(C(F)(F)F)nn1C [Compound 202]
95: Barnyardgrass plant response rating (barnyardgrass [6]; [14]) | Plant response rating, Pigweed (pigweed; [22])
85: Plant response rating, Lambsquarters (lambsquarters; [21]) | Plant response rating, Chickweed (chickweed; [20])
30: Oilseed Rape plant response rating (oilseed rape; 62 g ai/ha, scale 0 to 100) | Plant response rating, Oat, Wild (oat, wild; [20])
98: Galium plant response rating (galium; [14]) | Plant response rating, Morningglory (morningglory [7]; [20])
100: Foxtail, Giant plant response rating (0 to 100 scale) (foxtail, giant; [10]) | Foxtail, Giant plant response rating (foxtail, giant; [11]) | Morningglory plant response rating (0 to 100 scale) (morningglory [1]; [10]) | Morningglory plant response rating (morningglory [1]; [11]) | Barnyardgrass plant response rating (barnyardgrass [3]; [12]) | Galium plant response rating (galium; [15]) | Plant response rating, Galium (galium; [16]) | Galium plant response rating (galium; [17]) | Barnyardgrass plant response rating (barnyardgrass [6]; [15]) | Plant response rating, Barnyardgrass (barnyardgrass [6]; [16]) | Barnyardgrass plant response rating (barnyardgrass [6]; [17])
90: Barnyardgrass plant response rating (barnyardgrass [3]; [13]) | Velvetleaf plant response rating (velvetleaf [4]; 500 g ai/ha, 0 to 100 scale (0 no effect, 100 complete control)) | Corn plant response rating (corn [5]; [12]) | Plant response rating, Lambsquarters (lambsquarters; [20]) | Plant response rating, Morningglory (morningglory [7]; [21]) | Plant response rating, Pigweed (pigweed; [23])
75: Plant response rating (scale of 0 to 100 where 0 is no effect and 100 is complete control), Chickweed (chickweed; [18])
15: Plant response rating, Barnyardgrass (barnyardgrass [8]; [21])
40: Corn plant response rating (corn [2]; [11]) | Morningglory plant response rating (morningglory [7]; [19]) | Velvetleaf plant response rating (velvetleaf [9]; scale 0 to 100)
5: Plant response rating (scale of 0 to 100 where 0 is no effect and 100 is complete control), Oat, Wild (oat, wild; [18]) | Oat, Wild plant response rating (oat, wild; [19])
35: Plant response rating (scale of 0 to 100 where 0 is no effect and 100 is complete control), Morningglory (morningglory [7]; [18])
10: Corn plant response rating (0 to 100 scale) (corn [2]; [10]) | Plant response rating (scale of 0 to 100 where 0 is no effect and 100 is complete control), Barnyardgrass (barnyardgrass [8]; [18]) | Barnyardgrass plant response rating (barnyardgrass [8]; [19]) | Plant response rating, Oat, Wild (oat, wild; [21])
80: Corn plant response rating (corn [5]; [13]) | Lambsquarters plant response rating (lambsquarters; [19]) | Pigweed plant response rating (pigweed; 62 g ai/ha, scale 0 to 100) | Plant response rating, Oilseed Rape (oilseed rape; [22]) | Chickweed plant response rating (chickweed; [19]) | Plant response rating, Chickweed (chickweed; [21])
70: Velvetleaf plant response rating (velvetleaf [4]; 125 g ai/ha, 0 to 100 scale, 0 no effect, 100 complete control) | Plant response rating (scale of 0 to 100 where 0 is no effect and 100 is complete control), Lambsquarters (lambsquarters; [18])
25: Plant response rating, Barnyardgrass (barnyardgrass [8]; [20])
65: Plant response rating, Oilseed Rape (oilseed rape; [23]) | Plant response rating, Velvetleaf (velvetleaf [9]; [22])
